Results: ChEMBL document CHEMBL1201862, “PubChem BioAssay data set” (2004)
Where “and” joins values, the source holds several entries; their conditions need not be identical. Identical values can stand only once. Calls of active or inactive are those of the source.

Columns and labels:
Type in all cases: functional
[1] = target: Neuropeptides B/W receptor type 1 (Homo sapiens, UniProt P48145); assay: human NPBW1 receptor blockade, IC50 – cell-based, fluorescence, dose response, set 6, late-stage follow-up (AID 588583)
[2] = target: Melanin-concentrating hormone receptor 1 (Homo sapiens, UniProt Q99705); assay: Late-stage fluorescence-based counterscreen for antagonists of the G-protein coupled receptor 7 (GPR7): cell-based dose response assay to identify antagonists of the melanin-concentrating hormone receptor 1 (MCHR1) Set 6.
[3] = target: T1, Apoptotic protease-activating factor 1 (Homo sapiens, UniProt O14727); assay: SAR analysis of small molecule Activators of Apaf-1 in a Fluorescent assay - set 2.; details: read-out: EC50_Mean
T1 sequence (O14727 whole entry): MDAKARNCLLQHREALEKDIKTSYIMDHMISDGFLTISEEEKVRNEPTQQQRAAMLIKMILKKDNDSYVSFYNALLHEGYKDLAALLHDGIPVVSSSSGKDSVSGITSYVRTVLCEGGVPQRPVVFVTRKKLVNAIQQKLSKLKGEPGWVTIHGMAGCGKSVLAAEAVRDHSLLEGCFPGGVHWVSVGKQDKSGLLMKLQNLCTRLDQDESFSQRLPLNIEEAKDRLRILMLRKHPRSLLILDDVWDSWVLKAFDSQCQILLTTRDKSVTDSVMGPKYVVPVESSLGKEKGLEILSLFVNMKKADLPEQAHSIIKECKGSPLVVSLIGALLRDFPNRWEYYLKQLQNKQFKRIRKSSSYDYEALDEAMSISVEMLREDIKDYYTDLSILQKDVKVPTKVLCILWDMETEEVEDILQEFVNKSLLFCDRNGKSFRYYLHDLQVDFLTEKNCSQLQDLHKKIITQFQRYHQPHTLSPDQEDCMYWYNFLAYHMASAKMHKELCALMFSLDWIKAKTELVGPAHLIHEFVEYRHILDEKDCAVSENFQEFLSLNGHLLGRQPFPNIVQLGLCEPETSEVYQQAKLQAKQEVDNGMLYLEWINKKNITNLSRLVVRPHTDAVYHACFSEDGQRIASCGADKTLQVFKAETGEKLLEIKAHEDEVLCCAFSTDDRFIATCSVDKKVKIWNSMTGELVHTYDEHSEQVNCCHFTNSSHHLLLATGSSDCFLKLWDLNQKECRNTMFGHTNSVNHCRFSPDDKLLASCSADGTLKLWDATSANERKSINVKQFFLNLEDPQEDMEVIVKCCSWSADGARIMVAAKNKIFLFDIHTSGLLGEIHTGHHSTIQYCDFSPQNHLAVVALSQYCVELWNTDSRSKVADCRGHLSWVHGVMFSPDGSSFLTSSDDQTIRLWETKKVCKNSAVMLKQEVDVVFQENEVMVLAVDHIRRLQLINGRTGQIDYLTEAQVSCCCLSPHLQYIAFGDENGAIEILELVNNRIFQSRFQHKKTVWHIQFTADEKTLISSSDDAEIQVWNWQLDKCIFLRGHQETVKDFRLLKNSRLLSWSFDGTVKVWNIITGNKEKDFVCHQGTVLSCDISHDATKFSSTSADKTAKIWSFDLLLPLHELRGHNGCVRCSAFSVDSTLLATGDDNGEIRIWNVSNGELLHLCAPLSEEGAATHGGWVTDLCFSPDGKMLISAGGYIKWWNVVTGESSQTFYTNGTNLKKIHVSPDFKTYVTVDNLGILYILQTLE

[4] = target: T1, Apoptotic protease-activating factor 1; assay: activation of Apaf-1 mediated apoptosis – fluorescent, uHTS hits, dose response (AID 588554)
[5] = target: T1, Apoptotic protease-activating factor 1; assay: SAR analysis of small molecule Activators of Apaf-1 in a Fluorescent assay.; details: read-out: EC50_Mean
[6] = SAR analysis of small molecule activators of Apaf-1 using a LZ-Caspase-9/Caspase-3 Fluorescent Selectivity assay - Set 2.; details: read-out: EC50_Mean
[7] = target: Calcium/calmodulin-dependent protein kinase type II subunit alpha (Homo sapiens, UniProt Q9UQM7); assay: Navigating the Kinome. Panel member name: CAMK2A
[8] = target: Vascular endothelial growth factor receptor 2 (Homo sapiens, UniProt P35968)
[9] = target: Tyrosine-protein kinase receptor TYRO3 (Homo sapiens, UniProt Q06418);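 note: TYRO3 value obtained as one member of a kinome-wide profiling panel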
[10] = target: Dual specificity tyrosine-phosphorylation-regulated kinase 1A (Homo sapiens, UniProt Q13627);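 note: measured against DYRK1A as one member of a broad kinome profiling panel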
[11] = target: ALK tyrosine kinase receptor (Homo sapiens, UniProt Q9UM73);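 note: ALK tested as one member of a kinase panel screen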
[12] = target: Dual specificity mitogen-activated protein kinase kinase 1 (Homo sapiens, UniProt Q02750); assay: Navigating the Kinome. Panel member name: MAP2K1
[13] = target: Ribosomal protein S6 kinase alpha-3 (Homo sapiens, UniProt P51812);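 note: measured within a kinome-wide profiling panel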
[14] = target: Proto-oncogene tyrosine-protein kinase receptor Ret (Homo sapiens, UniProt P07949);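 note: measured within a kinome-wide profiling panel, RET as the panel member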
Chain of Proto-oncogene tyrosine-protein kinase receptor Ret (P07949 whole entry): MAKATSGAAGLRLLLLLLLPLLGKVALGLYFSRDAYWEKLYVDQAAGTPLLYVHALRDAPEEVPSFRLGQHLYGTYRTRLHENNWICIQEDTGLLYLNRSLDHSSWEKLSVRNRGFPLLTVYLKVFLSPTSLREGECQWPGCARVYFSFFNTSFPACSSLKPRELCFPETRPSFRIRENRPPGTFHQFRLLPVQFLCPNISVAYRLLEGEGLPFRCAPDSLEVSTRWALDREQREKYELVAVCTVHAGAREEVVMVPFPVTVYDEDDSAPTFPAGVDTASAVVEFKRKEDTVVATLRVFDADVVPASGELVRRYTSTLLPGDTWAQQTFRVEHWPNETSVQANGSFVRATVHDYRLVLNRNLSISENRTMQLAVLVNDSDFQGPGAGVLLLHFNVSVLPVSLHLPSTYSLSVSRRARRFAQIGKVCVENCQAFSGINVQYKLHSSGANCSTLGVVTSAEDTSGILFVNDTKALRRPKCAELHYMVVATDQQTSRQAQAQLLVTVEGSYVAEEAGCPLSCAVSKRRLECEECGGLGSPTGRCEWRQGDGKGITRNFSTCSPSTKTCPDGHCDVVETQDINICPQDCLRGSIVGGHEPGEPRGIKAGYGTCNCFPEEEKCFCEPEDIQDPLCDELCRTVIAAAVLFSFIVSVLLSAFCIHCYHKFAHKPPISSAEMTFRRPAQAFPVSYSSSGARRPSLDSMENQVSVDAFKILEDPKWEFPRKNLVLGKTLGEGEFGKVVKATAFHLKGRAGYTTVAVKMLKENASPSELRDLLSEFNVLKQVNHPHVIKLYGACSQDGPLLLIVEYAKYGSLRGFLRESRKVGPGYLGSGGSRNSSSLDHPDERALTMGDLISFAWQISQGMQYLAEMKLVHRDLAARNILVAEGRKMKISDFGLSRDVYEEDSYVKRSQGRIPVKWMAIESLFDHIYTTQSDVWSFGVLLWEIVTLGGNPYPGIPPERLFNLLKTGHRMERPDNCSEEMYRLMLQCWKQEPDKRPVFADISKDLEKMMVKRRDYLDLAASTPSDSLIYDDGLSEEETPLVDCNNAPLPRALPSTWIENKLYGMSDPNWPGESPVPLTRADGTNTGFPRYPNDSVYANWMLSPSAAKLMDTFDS

[15] = target: Death-associated protein kinase 3 (Homo sapiens, UniProt O43293);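 note: measured as one member of a kinome-wide profiling panel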
[16] = target: Inhibitor of nuclear factor kappa-B kinase subunit epsilon (Homo sapiens, UniProt Q14164); assay: Navigating the Kinome. Panel member name: IKBKE
[17] = target: Cyclin-dependent kinase 9 (Homo sapiens, UniProt P50750);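 note: value from the CDK9 entry of a kinome-spanning kinase panel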
[18] = target: Mitogen-activated protein kinase kinase kinase kinase 4 (Homo sapiens, UniProt O95819)
[19] = target: Tyrosine-protein kinase JAK3 (Homo sapiens, UniProt P52333)
[20] = target: cAMP-dependent protein kinase catalytic subunit PRKX (Homo sapiens, UniProt P51817)
[21] = target: Serine/threonine-protein kinase TBK1 (Homo sapiens, UniProt Q9UHD2); assay: Navigating the Kinome. Panel member name: TBK1
[22] = target: Platelet-derived growth factor receptor alpha (Homo sapiens, UniProt P16234); assay: Navigating the Kinome. Panel member name: PDGFRA
Chain of Platelet-derived growth factor receptor alpha (P16234 whole entry): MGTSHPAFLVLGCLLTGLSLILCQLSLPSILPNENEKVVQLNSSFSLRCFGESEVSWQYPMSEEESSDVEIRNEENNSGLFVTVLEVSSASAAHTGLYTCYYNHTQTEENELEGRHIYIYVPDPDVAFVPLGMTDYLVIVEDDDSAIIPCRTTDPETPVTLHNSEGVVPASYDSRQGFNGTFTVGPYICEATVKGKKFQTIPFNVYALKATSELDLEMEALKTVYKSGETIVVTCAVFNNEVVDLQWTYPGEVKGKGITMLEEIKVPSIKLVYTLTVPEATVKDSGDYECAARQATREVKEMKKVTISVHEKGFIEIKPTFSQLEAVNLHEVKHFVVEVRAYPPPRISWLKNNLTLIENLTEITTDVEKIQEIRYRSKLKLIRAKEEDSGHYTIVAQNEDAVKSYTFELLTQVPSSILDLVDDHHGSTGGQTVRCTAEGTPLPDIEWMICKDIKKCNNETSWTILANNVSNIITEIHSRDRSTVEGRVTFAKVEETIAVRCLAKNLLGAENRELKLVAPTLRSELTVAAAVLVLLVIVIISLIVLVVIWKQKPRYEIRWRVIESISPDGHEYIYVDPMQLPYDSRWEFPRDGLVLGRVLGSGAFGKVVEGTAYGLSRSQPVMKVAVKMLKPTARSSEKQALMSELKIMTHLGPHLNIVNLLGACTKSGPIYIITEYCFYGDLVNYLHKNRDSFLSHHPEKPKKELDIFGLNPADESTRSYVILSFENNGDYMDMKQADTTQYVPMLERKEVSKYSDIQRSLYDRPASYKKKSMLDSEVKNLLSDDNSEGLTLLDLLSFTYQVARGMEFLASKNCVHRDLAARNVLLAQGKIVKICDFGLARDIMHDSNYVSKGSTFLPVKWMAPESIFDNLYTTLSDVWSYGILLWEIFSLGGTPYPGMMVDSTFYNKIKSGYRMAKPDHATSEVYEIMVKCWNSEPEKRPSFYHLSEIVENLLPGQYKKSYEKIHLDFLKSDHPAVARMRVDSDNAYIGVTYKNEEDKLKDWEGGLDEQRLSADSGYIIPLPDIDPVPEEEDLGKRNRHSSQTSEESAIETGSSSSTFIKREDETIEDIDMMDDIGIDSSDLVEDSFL

[23] = target: BDNF/NT-3 growth factors receptor (Homo sapiens, UniProt Q16620);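 note: NTRK2 measured as one member of a broad kinome-wide kinase profiling panel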
[24] = target: Serine/threonine-protein kinase pim-1 (Homo sapiens, UniProt P11309)
Chain of Serine/threonine-protein kinase pim-1 (P11309 whole entry): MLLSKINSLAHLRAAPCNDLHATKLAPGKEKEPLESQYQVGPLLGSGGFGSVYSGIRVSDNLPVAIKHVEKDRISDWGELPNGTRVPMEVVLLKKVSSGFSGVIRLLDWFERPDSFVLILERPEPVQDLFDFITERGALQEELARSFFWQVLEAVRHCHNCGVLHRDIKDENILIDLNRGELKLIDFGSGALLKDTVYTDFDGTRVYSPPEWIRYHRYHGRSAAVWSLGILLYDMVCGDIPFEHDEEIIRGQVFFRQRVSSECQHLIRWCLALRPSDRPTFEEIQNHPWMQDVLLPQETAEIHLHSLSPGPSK

[25] = target: 5'-AMP-activated protein kinase catalytic subunit alpha-1 (Homo sapiens, UniProt Q13131)
[26] = target: Mitogen-activated protein kinase kinase kinase kinase 2 (Homo sapiens, UniProt Q12851);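 note: measured as one member of a kinome-wide kinase panel, with MAP4K2 as the panel entry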
[27] = target: Cyclin-dependent kinase 5 (Homo sapiens, UniProt Q00535);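 note: CDK5 measured as one member of a kinase profiling panel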
[28] = target: Dual specificity protein kinase CLK4 (Homo sapiens, UniProt Q9HAZ1)
[29] = target: Rho-associated protein kinase 1 (Homo sapiens, UniProt Q13464);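 note: measured within a broad kinome-wide panel profiling many kinases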
[30] = target: Dual specificity mitogen-activated protein kinase kinase 2 (Homo sapiens, UniProt P36507); assay: Navigating the Kinome. Panel member name: MAP2K2
Aurora kinase B = Aurora kinase B (Homo sapiens, UniProt Q96GD4)
[31] = target: Tyrosine-protein kinase Fyn (Homo sapiens, UniProt P06241)
[32] = target: Macrophage-stimulating protein receptor (Homo sapiens, UniProt Q04912); assay: Navigating the Kinome. Panel member name: MST1R
Chain of Macrophage-stimulating protein receptor (Q04912 25-304 limits assumed): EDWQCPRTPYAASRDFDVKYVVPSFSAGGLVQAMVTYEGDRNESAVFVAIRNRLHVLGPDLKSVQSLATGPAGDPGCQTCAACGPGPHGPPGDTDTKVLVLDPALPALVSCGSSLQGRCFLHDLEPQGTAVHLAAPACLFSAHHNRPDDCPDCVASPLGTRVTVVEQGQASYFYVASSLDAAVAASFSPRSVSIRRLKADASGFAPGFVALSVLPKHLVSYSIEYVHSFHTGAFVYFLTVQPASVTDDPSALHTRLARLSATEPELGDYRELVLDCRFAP
Chain of Macrophage-stimulating protein receptor (Q04912 310-1400 limits assumed): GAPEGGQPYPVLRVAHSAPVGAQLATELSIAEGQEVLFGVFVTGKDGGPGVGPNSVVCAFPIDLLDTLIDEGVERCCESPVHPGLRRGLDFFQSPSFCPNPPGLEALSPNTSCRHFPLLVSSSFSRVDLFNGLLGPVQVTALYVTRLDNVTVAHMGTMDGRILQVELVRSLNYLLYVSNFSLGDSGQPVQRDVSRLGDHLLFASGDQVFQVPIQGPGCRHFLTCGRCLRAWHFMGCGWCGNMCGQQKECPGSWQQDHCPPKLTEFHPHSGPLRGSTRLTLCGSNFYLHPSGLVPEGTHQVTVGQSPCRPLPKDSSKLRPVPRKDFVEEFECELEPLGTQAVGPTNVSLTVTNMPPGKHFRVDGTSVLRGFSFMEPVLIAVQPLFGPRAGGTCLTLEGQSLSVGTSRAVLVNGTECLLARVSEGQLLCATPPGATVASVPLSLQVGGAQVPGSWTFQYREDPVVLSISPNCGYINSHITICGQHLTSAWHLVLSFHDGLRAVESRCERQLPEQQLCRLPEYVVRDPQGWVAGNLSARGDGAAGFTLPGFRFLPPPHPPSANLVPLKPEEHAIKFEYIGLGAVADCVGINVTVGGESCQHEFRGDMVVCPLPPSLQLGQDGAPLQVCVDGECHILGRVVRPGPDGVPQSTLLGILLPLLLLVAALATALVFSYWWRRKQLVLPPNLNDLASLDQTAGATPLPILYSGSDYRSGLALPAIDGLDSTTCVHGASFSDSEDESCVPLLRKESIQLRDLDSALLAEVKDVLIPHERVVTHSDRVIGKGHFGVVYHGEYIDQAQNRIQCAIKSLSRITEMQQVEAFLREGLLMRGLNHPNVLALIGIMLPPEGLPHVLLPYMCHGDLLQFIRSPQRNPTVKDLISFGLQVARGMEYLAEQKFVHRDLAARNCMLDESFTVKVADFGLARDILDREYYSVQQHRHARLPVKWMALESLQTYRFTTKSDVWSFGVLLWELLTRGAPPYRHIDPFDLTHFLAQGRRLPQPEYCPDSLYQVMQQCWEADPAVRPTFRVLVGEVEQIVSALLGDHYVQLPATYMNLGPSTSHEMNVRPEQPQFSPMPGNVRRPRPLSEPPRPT

Activated CDC42 kinase 1 = Activated CDC42 kinase 1 (Homo sapiens, UniProt Q07912); assay: Navigating the Kinome. Panel member name: ACK1
[33] = target: Leukocyte tyrosine kinase receptor (Homo sapiens, UniProt P29376); assay: Navigating the Kinome. Panel member name: LTK
[34] = target: Protein kinase C theta type (Homo sapiens, UniProt Q04759); assay: Navigating the Kinome. Panel member name: PRKCQ
[35] = target: Serine/threonine-protein kinase TAO1 (Homo sapiens, UniProt Q7L7X3)
[36] = target: Macrophage colony-stimulating factor 1 receptor (Homo sapiens, UniProt P07333);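 note: value comes from the Navigating the Kinome screening panel, CSF1R member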
[37] = target: Vascular endothelial growth factor receptor 1 (Homo sapiens, UniProt P17948);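 note: measured within a kinome-wide profiling panel, FLT1 as the panel member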
[38] = target: High affinity nerve growth factor receptor (Homo sapiens, UniProt P04629);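 note: NTRK1 tested as one member of a kinome-wide profiling panel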
[39] = target: Mitogen-activated protein kinase 9 (Homo sapiens, UniProt P45984);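 note: value from a kinome panel profiling assay, MAPK9 panel entry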
[40] = target: Dual specificity tyrosine-phosphorylation-regulated kinase 1B (Homo sapiens, UniProt Q9Y463); assay: Navigating the Kinome. Panel member name: DYRK1B
[41] = target: Dual specificity protein kinase CLK2 (Homo sapiens, UniProt P49760)
[42] = target: Fibroblast growth factor receptor 1 (Homo sapiens, UniProt P11362)
[43] = target: G protein-coupled receptor kinase 5 (Homo sapiens, UniProt P34947); assay: Navigating the Kinome. Panel member name: GPRK5
[44] = target: cAMP-dependent protein kinase catalytic subunit alpha (Homo sapiens, UniProt P17612)
[45] = target: Mitogen-activated protein kinase 8 (Homo sapiens, UniProt P45983);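 note: value comes from one member of a kinome-wide kinase profiling panel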
[46] = target: Cyclin-dependent kinase 8 (Homo sapiens, UniProt P49336); assay: Navigating the Kinome. Panel member name: CDK8
[47] = target: Glycogen synthase kinase-3 alpha (Homo sapiens, UniProt P49840);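 note: GSK3A result taken from a broad kinome-wide kinase panel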
[48] = target: Tyrosine-protein kinase JAK2 (Homo sapiens, UniProt O60674);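 note: JAK2 tested as one member of a kinase panel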
[49] = target: Insulin-like growth factor 1 receptor (Homo sapiens, UniProt P08069); assay: Navigating the Kinome. Panel member name: IGF1R
[50] = target: Receptor-type tyrosine-protein kinase FLT3 (Homo sapiens, UniProt P36888);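 note: FLT3 was tested as one member of a kinome-wide kinase panel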
[51] = target: Leucine-rich repeat serine/threonine-protein kinase 2 (Homo sapiens, UniProt Q5S007);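 note: value from a broad kinome-wide panel profiling study in which LRRK2 was one of the kinases tested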
[52] = target: Glycogen synthase kinase-3 beta (Homo sapiens, UniProt P49841);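 note: value comes from a broad kinome profiling panel, with GSK3B as the panel member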
[53] = target: Tyrosine-protein kinase ABL1 (Homo sapiens, UniProt P00519)
Chain of Tyrosine-protein kinase ABL1 (P00519 whole entry): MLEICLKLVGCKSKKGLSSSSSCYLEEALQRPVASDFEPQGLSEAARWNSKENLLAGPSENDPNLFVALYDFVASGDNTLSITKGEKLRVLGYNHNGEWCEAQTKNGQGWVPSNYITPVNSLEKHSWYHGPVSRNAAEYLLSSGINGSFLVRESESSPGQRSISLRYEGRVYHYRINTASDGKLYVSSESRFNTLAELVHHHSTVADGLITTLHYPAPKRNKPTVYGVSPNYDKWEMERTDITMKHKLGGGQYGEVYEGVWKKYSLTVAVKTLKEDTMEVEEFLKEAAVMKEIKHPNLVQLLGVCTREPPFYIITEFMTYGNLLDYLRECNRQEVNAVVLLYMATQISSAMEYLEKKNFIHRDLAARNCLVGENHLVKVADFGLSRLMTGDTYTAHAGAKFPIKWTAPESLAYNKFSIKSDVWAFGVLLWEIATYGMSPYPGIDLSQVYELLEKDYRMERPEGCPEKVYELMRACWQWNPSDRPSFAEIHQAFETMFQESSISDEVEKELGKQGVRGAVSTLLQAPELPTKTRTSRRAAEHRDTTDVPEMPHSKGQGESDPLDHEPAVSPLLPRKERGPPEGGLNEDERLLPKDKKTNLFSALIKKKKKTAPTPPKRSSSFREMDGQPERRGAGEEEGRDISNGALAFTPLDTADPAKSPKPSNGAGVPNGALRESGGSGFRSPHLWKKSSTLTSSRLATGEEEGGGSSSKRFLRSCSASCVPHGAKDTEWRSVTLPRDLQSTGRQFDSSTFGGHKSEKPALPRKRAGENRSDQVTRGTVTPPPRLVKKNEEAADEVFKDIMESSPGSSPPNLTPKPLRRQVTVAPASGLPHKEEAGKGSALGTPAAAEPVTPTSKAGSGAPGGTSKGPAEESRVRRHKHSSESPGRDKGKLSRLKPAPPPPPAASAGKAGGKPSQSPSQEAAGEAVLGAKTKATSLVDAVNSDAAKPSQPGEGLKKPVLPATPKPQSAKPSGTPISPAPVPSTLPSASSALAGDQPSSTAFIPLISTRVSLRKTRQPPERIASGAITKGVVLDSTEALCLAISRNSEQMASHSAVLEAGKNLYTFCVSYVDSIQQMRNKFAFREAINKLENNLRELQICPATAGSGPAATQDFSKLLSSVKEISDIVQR

[54] = target: Hepatocyte growth factor receptor (Homo sapiens, UniProt P08581);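 note: kinase panel profiling across the kinome, with MET as the panel member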
[55] = target: Tyrosine-protein kinase BTK (Homo sapiens, UniProt Q06187)
[56] = target: Cyclin-dependent kinase 7 (Homo sapiens, UniProt P50613);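 note: value comes from a kinome-wide kinase profiling panel in which CDK7 is one member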
Activin receptor type-1 = Activin receptor type-1 (Homo sapiens, UniProt Q04771); assay: Navigating the Kinome. Panel member name: ACVR1
[57] = target: Serine/threonine-protein kinase PAK 4 (Homo sapiens, UniProt O96013);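 note: value obtained within a kinome profiling panel in which PAK4 was one of the panel members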
[58] = target: Mitogen-activated protein kinase 14 (Homo sapiens, UniProt Q16539);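 note: part of a kinome-wide panel, MAPK14 entry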
[59] = target: Serine/threonine-protein kinase D3 (Homo sapiens, UniProt O94806);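 note: determined within a kinase panel screen, with PRKCN as the panel member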
Aurora kinase A = Aurora kinase A (Homo sapiens, UniProt O14965);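 note: value from the Navigating the Kinome kinase panel profiling, panel entry STK6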

In the case of N#CC(c1ccsc1)c1c(Br)cnn(Cc2cccc3ccccc23)c1=O (stereo not drawn), the IC50 [1] is reported as 0.417 µM (active) and the IC50 [2] is reported as 0.417 µM (active).
With CC(Cc1c[nH]c2ccccc12)C(=O)O (stereo not drawn) the EC50 [3] was 9.48 µM (active) and 8.03 µM (active), the EC50 [4] was 2.25 µM (active) and the EC50 [5] was 8.95 µM (active). The EC50 [6] was > 99 µM (inactive) and > 100 µM (inactive).
For O=C(Nc1cccc(C(F)(F)F)n1)Nc1ccnc2ccc(Cl)cc12, the Ki [7] was > 7.94 µM (inactive), the Ki [8] was > 2.51 µM (inactive) and the Ki [9] was 2.51 µM (active). The Ki [10] was > 2 µM (inactive), the Ki [11] was > 6.31 µM (inactive) and the Ki [12] was > 3.16 µM (inactive). For the same compound, the Ki [13] was > 3.98 µM (inactive), the Ki [14] was > 3.16 µM (inactive) and the Ki [15] was 5.01 µM (active). The Ki [16] was > 3.16 µM (inactive), the Ki [17] was > 1.58 µM (inactive) and the Ki [18] was > 5.01 µM (inactive). For the same compound, the Ki [19] was > 5.01 µM (inactive), the Ki [20] was > 3.16 µM (inactive) and the Ki [21] was > 3.16 µM (inactive). For the same compound, the Ki [22] was > 2.51 µM (inactive), the Ki [23] was > 3.98 µM (inactive) and the Ki [24] was > 6.31 µM (inactive). The Ki [25] was > 3.16 µM (inactive), the Ki [26] was > 2.51 µM (inactive) and the Ki [27] was > 3.16 µM (inactive). The Ki [28] was 0.158 µM (active), the Ki [29] was > 3.98 µM (inactive) and the Ki [30] was > 3.98 µM (inactive). The Ki (Aurora kinase B) was > 3.98 µM (inactive), the Ki [31] was > 6.31 µM (inactive) and the Ki [32] was > 3.98 µM (inactive). The Ki (Activated CDC42 kinase 1) was > 3.98 µM (inactive), the Ki [33] was > 2.51 µM (inactive) and the Ki [34] was > 2.51 µM (inactive). The Ki [35] was > 6.31 µM (inactive), the Ki [36] was > 2.51 µM (inactive) and the Ki [37] was > 3.98 µM (inactive). The Ki [38] was > 3.16 µM (inactive), the Ki [39] was > 3.98 µM (inactive) and the Ki [40] was 1.58 µM (active). For the same compound, the Ki [41] was 3.16 µM (active), the Ki [42] was > 3.98 µM (inactive) and the Ki [43] was > 3.98 µM (inactive). The Ki [44] was > 1.26 µM (inactive), the Ki [45] was > 5.01 µM (inactive) and the Ki [46] was 0.0631 µM (active). The Ki [47] was 0.0631 µM (active), the Ki [48] was > 2.51 µM (inactive) and the Ki [49] was > 2.51 µM (inactive). For the same compound, the Ki [50] was > 3.16 µM (inactive), the Ki [51] was > 2.51 µM (inactive) and the Ki [52] was 0.0398 µM (active). The Ki [53] was 2 µM (active), the Ki [54] was > 2.51 µM (inactive) and the Ki [55] was > 6.31 µM (inactive). The Ki [56] was > 3.98 µM (inactive), the Ki (Activin receptor type-1) was 1.58 µM (active) and the Ki [57] was > 5.01 µM (inactive). The Ki [58] was > 3.98 µM (inactive), the Ki [59] was > 3.98 µM (inactive) and the Ki (Aurora kinase A) was > 1.58 µM (inactive).
